Measured values published in BindingDB's records for doi:10.1016/j.bmc.2020.115622 (Kyowa Kirin, 2020).

Test: Inhibition of chemR23 expressed in human CAL1 cells assessed as reduction in chemerin-induced chemotaxis incubated for 4 hrs by cell counting based CellTiter-Glo assay

SMILES | IC50 [nM]
CCCCN(c1nc2c(C(=O)O)cccc2o1)[C@H](C)c1ccc(-c2cc(Cl)ccc2-c2nc(=O)o[nH]2)cc1 | 235
Cc1ccc(-c2nc(=O)o[nH]2)c(-c2ccc([C@@H](C)N(CC3CC3)c3nc4c(C(=O)O)cccc4o3)cc2)c1 | 63
